The test concerns L1210 leukemia ip in BDF1 mice, survival T/C. Description: NCI In Vivo Anticancer Drug Screen. Data for tumor model L1210 Leukemia (intraperitoneal) in B6D2F1 (BDF1) mice. To be noted: endpoint: mean survival time, higher = longer survival. The procedure, abridged: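 Survival endpoint. Drug-treated group vs vehicle group, expressed as T divided by C. Tumor passaged by transplantation.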

Setting [1] is: dose: 100.0 mg/kg/injection, schedule: Q04DX003 (ip), vehicle: Klucel (hydroxypropylcellulose) (HPC).
The mark [2] stands for this setting: dose: 200.0 mg/kg/injection, schedule: Q04DX003 (ip), vehicle: Klucel (hydroxypropylcellulose) (HPC).

Toxic doses and inconclusive results are not listed.

The source of these data is PubChem BioAssay AID248 (DTP/NCI, 2004).

In the case of `CN=C(NC)c1ccc(NC(=O)/C=C\c2ccc(C(=O)Nc3ccc(C(=NC)NC)cc3)cc2)cc1`, the T/C is, setting by setting: (dose: 0.23 mg/kg/injection, schedule: Q01DX Z (ip), vehicle: saline) 90 % of control; (dose: 0.47 mg/kg/injection, schedule: Q01DX Z (ip), vehicle: saline) 114 % of control; (dose: 0.5 mg/kg/injection, schedule: Q01DX006 (iv), vehicle: saline) 105 % of control; (dose: 0.5 mg/kg/injection, schedule: Q01DX Z (ip), vehicle: saline) 104 % of control; (dose: 0.5 mg/kg/injection, schedule: Q01DX Z (sc), vehicle: saline) 96 % of control; (dose: 0.5 mg/kg/injection, schedule: Q02DX004 (im), vehicle: saline) 98 % of control. Further, the T/C runs as follows: (dose: 0.94 mg/kg/injection, schedule: Q01DX Z (ip), vehicle: saline) 120 % of control; (dose: 1.0 mg/kg/injection, schedule: Q01DX006 (iv), vehicle: saline) 107 % of control; (dose: 1.0 mg/kg/injection, schedule: Q01DX Z (ip), vehicle: saline) 118 % of control; (dose: 1.0 mg/kg/injection, schedule: Q01DX Z (sc), vehicle: saline) 94 % of control; (dose: 1.0 mg/kg/injection, schedule: Q02DX004 (im), vehicle: saline) 105 % of control; (dose: 2.0 mg/kg/injection, schedule: Q01DX006 (iv), vehicle: saline) 100 % of control. Moreover, the T/C by setting is: (dose: 2.0 mg/kg/injection, schedule: Q01DX Z (sc), vehicle: saline) 105 % of control; (dose: 2.0 mg/kg/injection, schedule: Q02DX004 (im), vehicle: saline) 96 % of control; (dose: 3.75 mg/kg/injection, schedule: Q01DX Z (ip), vehicle: saline) 248 % of control; (dose: 4.0 mg/kg/injection, schedule: Q01DX006 (iv), vehicle: saline) 105 % of control; (dose: 4.0 mg/kg/injection, schedule: Q01DX Z (ip), vehicle: saline) 209 % of control; (dose: 4.0 mg/kg/injection, schedule: Q01DX Z (sc), vehicle: saline) 164 % of control. Also, the T/C was 107 % of control (dose: 4.0 mg/kg/injection, schedule: Q02DX004 (im), vehicle: saline); 116 % of control (dose: 8.0 mg/kg/injection, schedule: Q01DX006 (iv), vehicle: saline); 121 % of control (dose: 8.0 mg/kg/injection, schedule: Q01DX Z (ip), vehicle: saline); 86 % of control (dose: 15.0 mg/kg/injection, schedule: Q01DX Z (ip), vehicle: saline); 97 % of control (dose: 15.0 mg/kg/injection, schedule: Q01DX Z (oral), vehicle: other); 123 % of control (dose: 16.0 mg/kg/injection, schedule: Q01DX004 (im), vehicle: saline). For the same molecule, the T/C is, setting by setting: (dose: 16.0 mg/kg/injection, schedule: Q01DX006 (iv), vehicle: saline) 107 % of control; (dose: 16.0 mg/kg/injection, schedule: Q01DX Z (ip), vehicle: saline) 107 % of control; (dose: 16.0 mg/kg/injection, schedule: Q01DX Z (sc), vehicle: saline) 120 % of control; (dose: 16.0 mg/kg/injection, schedule: Q02DX004 (im), vehicle: saline) 191 % of control; (dose: 30.0 mg/kg/injection, schedule: Q01DX Z (oral), vehicle: other) 95 % of control; (dose: 32.0 mg/kg/injection, schedule: Q01DX004 (im), vehicle: saline) 161 % of control. In addition, the T/C is 104 % of control (dose: 60.0 mg/kg/injection, schedule: Q01DX Z (oral), vehicle: other); 93 % of control (dose: 62.5 mg/kg/injection, schedule: Q## X009 (oral), vehicle: saline); 112 % of control (dose: 125.0 mg/kg/injection, schedule: Q## X010 (oral), vehicle: saline); 116 % of control (dose: 128.0 mg/kg/injection, schedule: Q01DX004 (im), vehicle: saline); 111 % of control (dose: 250.0 mg/kg/injection, schedule: Q## X010 (oral), vehicle: saline); 102 % of control (dose: 500.0 mg/kg/injection, schedule: Q## X009 (oral), vehicle: saline).
With `CC(C(=O)c1ccccc1)S(=O)(=O)O` (configuration not stated), the T/C is, setting by setting: (dose: 100.0 mg/kg/injection, schedule: Q04DX003 (ip), vehicle: saline) 102 % of control; (dose: 200.0 mg/kg/injection, schedule: Q04DX003 (ip), vehicle: saline) 94 % of control; (dose: 400.0 mg/kg/injection, schedule: Q04DX003 (ip), vehicle: saline) 96 % of control.
With `Cc1ccc(S(=O)(=O)N=N/C=C2/C=CC=CN2O)cc1`, the T/C runs as follows: (dose: 40.0 mg/kg/injection, schedule: Q01DX009 (ip), vehicle: saline) 93 % of control; (dose: 60.0 mg/kg/injection, schedule: Q01DX009 (ip), vehicle: saline) 96 % of control; (dose: 90.0 mg/kg/injection, schedule: Q01DX009 (ip), vehicle: saline) 94 % of control; (dose: 135.0 mg/kg/injection, schedule: Q01DX009 (ip), vehicle: saline) 104 % of control; (dose: 175.0 mg/kg/injection, schedule: Q01DX009 (ip), vehicle: saline with Tween-80) 111 % of control.
For `NC(=O)c1ccc(Cl)c([N+](=O)[O-])c1`, the T/C is, setting by setting: under setting [1], 110 % of control; under setting [2], 109 % of control.
In the case of `c1cc[n+]2c(c1)-c1cccc[n+]1CCC2`, the T/C (dose: 100.0 mg/kg/injection, schedule: Q01DX001 (ip), vehicle: carboxymethylcellulose (CMC)) was 94 % of control; the T/C (dose: 200.0 mg/kg/injection, schedule: Q01DX001 (ip), vehicle: carboxymethylcellulose (CMC)) was 101 % of control; the T/C (dose: 400.0 mg/kg/injection, schedule: Q01DX001 (ip), vehicle: carboxymethylcellulose (CMC)) is 92 % of control.
Take `O=C1OC2C3c4ccccc4C(c4c3cc(F)c3ccccc43)C2O1` (configuration not stated): the T/C under setting [1] was 100 % of control; the T/C under setting [2] is 97 % of control; the T/C (dose: 400.0 mg/kg/injection, schedule: Q04DX003 (ip), vehicle: Klucel (hydroxypropylcellulose) (HPC)) is 95 % of control.
